Assay results as given in ChEMBL document CHEMBL1201862, “PubChem BioAssay data set” (2004).
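96-well plates; 48 h exposure; 5 concentrations. Endpoints by linear interpolation between flanking doses. Not reached: highest tested concentration assigned. GI50: concentration for 50% inhibition of growth.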 Calls of active or inactive are those of the source. Rule as the data show it: active = GI50 up to about 1.1 µM and inactive = higher.

Key:
Experiment in all cases: NCI anticancer screen, dose series, 48 h
DMS-114 = tested on: DMS-114
DMS-273 = tested on: DMS-273
HOP-18 = tested on: HOP-18
KM-20L2 = tested on: KM-20L2
LXFL 529 = tested on: LXFL 529
M19-MEL = tested on: M19-MEL
RXF 631 = tested on: RXF 631
SNB-78 = tested on: SNB-78
XF498 = tested on: XF498

Measured: GI50

CC(C)N(C(=O)C12C3C4C5(C#N)C3C1(C#N)C5C42I)C(C)C (configuration not stated)
inactive: DMS-114 > 44.4 µM | DMS-273 > 43.4 µM | HOP-18 > 100 µM | KM-20L2 > 100 µM | LXFL 529 > 100 µM | M19-MEL 97.1 µM | RXF 631 > 100 µM | SNB-78 > 100 µM | XF498 > 100 µM

COc1ccc(C2=Nc3ccccc3SC(C)C2)cc1 (configuration not stated)
inactive: DMS-114 73.3 µM | DMS-273 78.7 µM | KM-20L2 > 100 µM | LXFL 529 85.1 µM | M19-MEL 94.6 µM | RXF 631 68.4 µM | SNB-78 > 100 µM

O=Cn1c2ccccc2c2ccccc21
inactive: DMS-114 > 100 µM | DMS-273 > 100 µM | HOP-18 9.64 µM | KM-20L2 > 100 µM | LXFL 529 > 100 µM | M19-MEL > 100 µM | SNB-78 > 100 µM | XF498 36.1 µM

O=C(NCc1ccccc1)C1C(=O)C(=O)N(Cc2ccccc2)C1=O (configuration not stated)
inactive: DMS-273 > 100 µM | HOP-18 > 100 µM | KM-20L2 > 100 µM | LXFL 529 > 100 µM | M19-MEL > 100 µM | RXF 631 > 100 µM | SNB-78 > 100 µM

Cc1ccc([N+](=O)[O-])c2c(NCCCN(C)C)ccnc12
inactive: KM-20L2 26.4 µM | SNB-78 55.7 µM

CCCCCCCCCCCC[N+]12CC[N+](C)(CC1)CC2
inactive: DMS-114 19.9 µM | DMS-273 3.69 µM | HOP-18 43.6 µM | KM-20L2 14.9 µM | LXFL 529 25.7 µM | M19-MEL 19.5 µM | SNB-78 26.4 µM | XF498 20.7 µM

S=c1[nH]c(=S)c2nnn(-c3ccccc3)c2[nH]1
inactive: DMS-114 5.97 µM | DMS-273 > 100 µM | KM-20L2 > 100 µM | LXFL 529 > 100 µM | M19-MEL > 100 µM | XF498 > 100 µM

CCOc1ccccc1NC(=O)CC1C(=O)Nc2ccccc2[S+]1[O-] (configuration not stated)
inactive: DMS-114 > 100 µM | DMS-273 66.5 µM | KM-20L2 > 100 µM | LXFL 529 56.8 µM | M19-MEL > 100 µM | SNB-78 > 100 µM | XF498 44.8 µM

O=c1[nH]c2nc3ccccc3c(=O)n2nc1Cc1ccccc1
inactive: DMS-114 > 100 µM | DMS-273 > 100 µM | KM-20L2 > 100 µM | LXFL 529 > 100 µM | SNB-78 > 100 µM

COc1ccccc1NC(=O)C1=C(C)NC(C)=C(C(=O)Nc2ccccc2OC)C1c1ccc(C(C)C)cc1
inactive: DMS-273 59.7 µM | HOP-18 > 100 µM | KM-20L2 48.4 µM | LXFL 529 > 100 µM | M19-MEL > 100 µM | RXF 631 > 100 µM | XF498 18.6 µM

O=C(NCc1ccccc1)c1cc2ccc(O)c(O)c2cn1
inactive: DMS-114 12.8 µM | DMS-273 17.4 µM | HOP-18 20.7 µM | KM-20L2 > 100 µM | LXFL 529 16.9 µM | M19-MEL 1.8 µM | SNB-78 18.1 µM | XF498 17.4 µM

CN1C(=O)C2C(C1=O)C1(O)c3ccccc3C2(N)c2ccccc21 (configuration not stated)
inactive: DMS-114 > 100 µM | DMS-273 > 100 µM | HOP-18 > 100 µM | M19-MEL > 100 µM | RXF 631 > 100 µM | SNB-78 > 100 µM

Cc1c(Cl)ccc2c1NC(=O)C2(O)CC(=O)c1ccc(Cl)cc1Cl (configuration not stated)
inactive: DMS-114 38.5 µM | DMS-273 > 50 µM | KM-20L2 > 50 µM | LXFL 529 27.8 µM | M19-MEL > 50 µM | RXF 631 31 µM | SNB-78 21.8 µM | XF498 16.7 µM

COC(=O)C12OCC34C(CC5C(C)=C(O)C(=O)CC5(C)C3C(O)C1O)OC(=O)C(OC(=O)C=C(C)C)C24 (configuration not stated)
inactive: DMS-114 167 µM | DMS-273 > 500 µM | HOP-18 > 500 µM | KM-20L2 > 500 µM | M19-MEL 287 µM | SNB-78 > 476 µM | XF498 335 µM

COC(=O)C(=O)C(/C(=N/N)C(=O)Nc1ccccc1C(N)=O)c1nc2ccc([N+](=O)[O-])cc2nc1O (configuration not stated)
inactive: DMS-114 > 100 µM | DMS-273 > 100 µM | KM-20L2 > 100 µM | LXFL 529 > 100 µM | M19-MEL > 100 µM | SNB-78 > 100 µM | XF498 > 100 µM

COc1ccc(C2C(Cl)C(=O)N2n2cnc3ccccc3c2=O)cc1 (configuration not stated)
inactive: DMS-114 72.8 µM | DMS-273 82.4 µM | HOP-18 24.2 µM | KM-20L2 > 100 µM | LXFL 529 62.1 µM | M19-MEL 76 µM | SNB-78 > 100 µM | XF498 > 100 µM

N#Cc1cccc(C2SCc3nc4ccccc4n32)c1 (configuration not stated)
inactive: DMS-114 49.4 µM | DMS-273 > 100 µM | KM-20L2 > 100 µM | LXFL 529 42.1 µM | RXF 631 > 100 µM | SNB-78 > 100 µM | XF498 33.6 µM

CCCCNC1CCCCC[C@H]1O (some centres not stated)
inactive: DMS-114 > 100 µM | DMS-273 > 100 µM | HOP-18 > 100 µM | KM-20L2 > 100 µM | LXFL 529 > 100 µM | M19-MEL > 100 µM | SNB-78 > 100 µM

COc1ccccc1C1C(C(=O)Nc2ccccc2)=C(C)NC(C)=C1C(=O)Nc1ccccc1
inactive: DMS-114 41.8 µM | DMS-273 34 µM | HOP-18 > 100 µM | KM-20L2 94.8 µM | LXFL 529 61.5 µM | M19-MEL 50.6 µM | RXF 631 62.8 µM | SNB-78 > 100 µM | XF498 36.3 µM

C/C(=C\C(C)COCc1ccccc1)[C@H](COCc1ccccc1)OCc1ccccc1 (some centres not stated)
inactive: DMS-114 57.5 µM | DMS-273 > 100 µM | KM-20L2 > 100 µM | LXFL 529 82 µM | M19-MEL > 100 µM | RXF 631 > 100 µM | SNB-78 > 100 µM | XF498 8.53 µM

O=[N+]([O-])c1ccc(C2N3CCCCC3[C@H]3CCCCN23)cc1 (some centres not stated)
inactive: DMS-273 > 100 µM | HOP-18 > 100 µM | KM-20L2 > 100 µM | LXFL 529 > 100 µM | M19-MEL > 100 µM | RXF 631 > 100 µM | SNB-78 > 100 µM | XF498 > 100 µM

COc1cc2c3c(c1OC)-c1cc4c(cc1CC3(C#N)N(C(=O)c1ccccc1)CC2)OCO4 (configuration not stated)
inactive: DMS-114 26.5 µM | DMS-273 21.6 µM | HOP-18 21.2 µM | KM-20L2 > 80.9 µM | LXFL 529 17.7 µM | M19-MEL 46.8 µM | SNB-78 11.4 µM | XF498 6.25 µM

CCC1C(=O)OCc2c1cc1n(c2=O)Cc2ccccc2-1 (configuration not stated)
inactive: DMS-114 > 100 µM | DMS-273 > 100 µM | HOP-18 > 100 µM | KM-20L2 > 100 µM | LXFL 529 > 100 µM | M19-MEL > 100 µM | RXF 631 > 100 µM | SNB-78 > 100 µM | XF498 > 100 µM

NC(=O)NNC(=O)CCn1[nH]c(=O)c(Cl)c(Cl)c1=O
inactive: DMS-114 > 100 µM | DMS-273 > 100 µM | HOP-18 > 100 µM | KM-20L2 > 100 µM | LXFL 529 > 100 µM | M19-MEL > 100 µM | RXF 631 > 100 µM | SNB-78 > 100 µM

O=C1OCc2nc3c(c(-c4ccccc4C(F)(F)F)c21)C(=O)OC3
inactive: DMS-114 > 100 µM | DMS-273 > 100 µM | HOP-18 > 100 µM | KM-20L2 > 100 µM | LXFL 529 > 100 µM | M19-MEL > 100 µM | SNB-78 > 100 µM

CC(=O)c1c(C)[n+]([O-])c2cc(C)c(C)cc2[n+]1[O-]
inactive: DMS-114 > 100 µM | DMS-273 > 100 µM | HOP-18 > 100 µM | KM-20L2 > 100 µM | LXFL 529 > 100 µM | M19-MEL > 100 µM | RXF 631 > 100 µM | SNB-78 > 100 µM | XF498 > 100 µM

CCc1cccc(C)c1NC(=O)C1=C(C)NC(C)=C(C(=O)Nc2c(C)cccc2CC)C1c1ccc2c(c1)OCO2
inactive: DMS-114 16.2 µM | KM-20L2 23.9 µM | LXFL 529 18.2 µM | M19-MEL 21.4 µM | RXF 631 20 µM | SNB-78 25.8 µM | XF498 15.7 µM
